Laboratory results as given in patent US20250215029A1 (Recludix Pharma, Inc., priority 2022, published 2025).

Experiments:
[1] = target: T1, Recombinant STAT3 protein (STAT3 (G127-I722)) (Homo sapiens, UniProt P40763); assay: STAT3 Fluorescence Polarization (FP) Assay; assay type: binding; conditions: STAT3 (G127-I722) 25 nM, probe 5-FAM-GpYLPQTV-NH2 2 nM, 45-minute incubation; read-out: STAT3 (FP assay IC50 class)
T1 construct: Recombinant STAT3 protein (STAT3 (G127-I722))
How it was run: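 In this competition FP format, STAT3 residues G127-I722 (25 nM) and 2 nM 5-FAM-GpYLPQTV-NH2 met test compounds for 45 min at room temperature. IC50 values result from fitting mP signal against log concentration by nonlinear regression.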

[2] = target: T2, Recombinant STAT6 protein (STAT6 (W123-T658)) (Homo sapiens, UniProt P42226); assay: STAT6 Fluorescence Polarization (FP) Assay; assay type: binding; conditions: STAT6 (W123-T658) 250 nM, probe 5-FAM-Ap[…]-NH2 2 nM, 45-minute incubation; read-out: STAT6 (FP assay IC50 class)
T2 construct: Recombinant STAT6 protein (STAT6 (W123-T658))
T2 sequence (P42226 123-658): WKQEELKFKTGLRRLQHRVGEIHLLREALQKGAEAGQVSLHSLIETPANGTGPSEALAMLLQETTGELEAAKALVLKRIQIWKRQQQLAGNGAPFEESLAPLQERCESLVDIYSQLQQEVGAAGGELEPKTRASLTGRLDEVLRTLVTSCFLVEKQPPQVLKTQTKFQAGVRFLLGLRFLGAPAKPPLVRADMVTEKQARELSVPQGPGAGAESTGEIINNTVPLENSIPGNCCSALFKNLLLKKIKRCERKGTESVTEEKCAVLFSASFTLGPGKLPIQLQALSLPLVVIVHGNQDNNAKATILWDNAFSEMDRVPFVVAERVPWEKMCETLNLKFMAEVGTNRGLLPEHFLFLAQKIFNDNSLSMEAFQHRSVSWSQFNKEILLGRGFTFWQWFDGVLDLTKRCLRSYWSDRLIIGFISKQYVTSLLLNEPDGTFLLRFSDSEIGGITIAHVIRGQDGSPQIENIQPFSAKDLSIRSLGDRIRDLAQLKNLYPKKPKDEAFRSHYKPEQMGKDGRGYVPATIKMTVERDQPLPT
How it was run: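 Serially diluted compounds received a premix of STAT6 (W123-T658, 250 nM) and 5-FAM peptide probe (2 nM) in pH 7.4 HEPES buffer containing DTT and Tween 20. Following 45 min at room temperature, FP was recorded. IC50s were fitted by nonlinear regression; values are binned A (≤300 nM), B (>300-3000 nM), C (>3-30 μM), D (>30 μM).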

T1 sequence (P40763 127-722): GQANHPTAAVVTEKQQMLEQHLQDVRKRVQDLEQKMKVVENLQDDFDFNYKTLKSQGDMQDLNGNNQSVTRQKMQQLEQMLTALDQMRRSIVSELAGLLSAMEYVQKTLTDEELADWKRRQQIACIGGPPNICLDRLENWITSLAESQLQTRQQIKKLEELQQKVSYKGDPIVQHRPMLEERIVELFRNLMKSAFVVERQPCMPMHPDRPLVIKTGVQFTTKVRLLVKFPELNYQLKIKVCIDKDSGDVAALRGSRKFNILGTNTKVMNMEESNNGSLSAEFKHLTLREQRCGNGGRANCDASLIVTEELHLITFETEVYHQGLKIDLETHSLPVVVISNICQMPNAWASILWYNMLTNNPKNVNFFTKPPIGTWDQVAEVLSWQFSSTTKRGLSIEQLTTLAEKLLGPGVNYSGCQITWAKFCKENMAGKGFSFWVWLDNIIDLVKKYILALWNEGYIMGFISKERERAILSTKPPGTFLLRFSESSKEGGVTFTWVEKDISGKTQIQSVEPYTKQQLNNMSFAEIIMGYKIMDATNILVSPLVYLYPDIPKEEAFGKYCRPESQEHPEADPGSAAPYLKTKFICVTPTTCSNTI

`O=C(N[C@H]1CCC[C@H]2CC[C@@H](C(=O)N3CC(c4cnccc4OC4COC4)C3)N2C1=O)c1cc2cc(C(F)P(=O)(O)O)ccc2s1` (stereo partly drawn) [Compound 598, (fluoro(2-(((3S,6S,9aS)-3-(3-(4-(oxetan-3-yloxy)pyridin-3-yl)azetidine-1-carbonyl)-5-oxooctahydro-1H-pyrrolo[1,2-a]azepin-6-yl)carbamoyl)benzo [b]thiophen-5-yl)methyl) phosphonic acid] showed an IC50 [1] of less than 0.1 µM and an IC50 [2] of 3 to 30 µM.
For `O=C(N[C@H]1CCCC[C@H]2CC[C@@H](C(=O)N3C(=O)N(c4cccc5c4OC(F)(F)O5)C(=O)C34CC4)N2C1=O)c1cc2cc(C(F)P(=O)(O)O)ccc2s1` (stereo partly drawn) [Compound 601, ((2-(((3S,6S,10aS)-3-(6-(2,2-difluorobenzo[d][1, 3]dioxol-4-yl)-5,7-dioxo-4,6-diazaspiro[2.4]heptane-4-carbonyl)-5-oxodecahydropyrrolo [1,2-a]azocin-6-yl)carbamoyl)benzo [b]thiophen-5-yl)fluoromethyl) phosphonic acid], the IC50 [1] was 1 to 10 µM and the IC50 [2] was no more than 0.3 µM.
`CC1C(c2cccnc2)CN1C(=O)[C@@H]1CC[C@@H]2CCC[C@H](NC(=O)c3cc4cc(C(F)P(=O)(O)O)ccc4s3)C(=O)N21` (stereo partly drawn) [Compound 602, (fluoro(2-(((3S,6S,9aS)-3-(2-methyl-3-(pyridin-3-yl)azetidine-1-carbonyl)-5-oxooctahydro-1H-pyrrolo[1,2-a]azepin-6-yl)carbamoyl)benzo [b]thiophen-5-yl)methyl) phosphonic acid] showed an IC50 [1] of less than 0.1 µM and an IC50 [2] of 3 to 30 µM.
With `C[C@@H]1CC[C@H](NC(=O)c2cc3cc(CP(=O)(O)O)ccc3s2)C(=O)N2[C@H](CC[C@H]2C(=O)N2CC(c3cnccc3F)C2)C1` [Compound 603, ((2-(((3S,6S,9R,10aR)-3-(3-(4-fluoropyridin-3-yl)azetidine-1-carbonyl)-9-methyl-5-oxodecahydropyrrolo [1,2-a]azocin-6-yl)carbamoyl)benzo [b]thiophen-5-yl)methyl) phosphonic acid] the IC50 [1] was less than 0.1 µM and the IC50 [2] was 3 to 30 µM.
For `O=C(N[C@H]1CCC[C@H]2CC[C@@H](C(=O)N3CCC(c4ccncn4)CC3)N2C1=O)c1cc2cc(C(F)P(=O)(O)O)ccc2s1` (stereo partly drawn) [Compound 604, (fluoro(2-(((3S,6S,9aS)-5-oxo-3-(4-(pyrimidin-4-yl)piperidine-1-carbonyl)octahydro-1H-pyrrolo[1,2-a]azepin-6-yl)carbamoyl)benzo [b]thiophen-5-yl)methyl) phosphonic acid], the IC50 [1] was 0.1 to 1 µM and the IC50 [2] was 3 to 30 µM.
`O=C(N[C@H]1CCC[C@H]2CC[C@@H](C(=O)N3CC(c4cncnc4O)C3)N2C1=O)c1cc2cc(CP(=O)(O)O)ccc2s1` [Compound 605, ((2-(((3S,6S,9aS)-3-(3-(4-hydroxypyrimidin-5-yl)azetidine-1-carbonyl)-5-oxooctahydro-1H-pyrrolo[1,2-a]azepin-6-yl)carbamoyl)benzo [b]thiophen-5-yl)methyl) phosphonic acid] showed an IC50 [1] of less than 0.1 µM and an IC50 [2] of 3 to 30 µM.
With `CNc1ccncc1C1CN(C(=O)[C@@H]2CC[C@@H]3CCC[C@H](NC(=O)c4cc5cc(CP(=O)(O)O)ccc5s4)C(=O)N32)C1` [Compound 606, ((2-(((3S,6S,9aS)-3-(3-(4-(methylamino)pyridin-3-yl)azetidine-1-carbonyl)-5-oxooctahydro-1H-pyrrolo[1,2-a]azepin-6-yl)carbamoyl)benzo [b]thiophen-5-yl)methyl) phosphonic acid] the IC50 [1] was less than 0.1 µM and the IC50 [2] was 3 to 30 µM.
In the case of `Cn1ncc(C2CN(C(=O)[C@@H]3CC[C@@H]4CCC[C@H](NC(=O)c5cc6cc(C(F)P(=O)(O)O)ccc6s5)C(=O)N43)C2)c1O` (stereo partly drawn) [Compound 607, (fluoro(2-(((3S,6S,9aS)-3-(3-(5-hydroxy-1-methyl-1H-pyrazol-4-yl)azetidine-1-carbonyl)-5-oxooctahydro-1H-pyrrolo[1,2-a]azepin-6-yl)carbamoyl)benzo [b]thiophen-5-yl)methyl) phosphonic acid], the IC50 [1] is reported as less than 0.1 µM and the IC50 [2] is reported as 0.3 to 3 µM.
`O=C(N[C@H]1CCC[C@H]2CC[C@@H](C(=O)N3CC(c4ccccc4O)C3)N2C1=O)c1cc2cc(C(F)P(=O)(O)O)ccc2s1` (stereo partly drawn) [Compound 608, (fluoro(2-(((3S,6S,9aS)-3-(3-(2-hydroxyphenyl)azetidine-1-carbonyl)-5-oxooctahydro-1H-pyrrolo[1,2-a]azepin-6-yl)carbamoyl)benzo [b]thiophen-5-yl)methyl) phosphonic acid] gave an IC50 [1] of less than 0.1 µM and an IC50 [2] of 0.3 to 3 µM.
`O=C(N[C@H]1CCC[C@H]2CC[C@@H](C(=O)N3CC(n4cnccc4=O)C3)N2C1=O)c1cc2cc(C(F)P(=O)(O)O)ccc2s1` (stereo partly drawn) [Compound 609, (fluoro(2-(((3S,6S,9aS)-5-oxo-3-(3-(6-oxopyrimidin-1(6H)-yl)azetidine-1-carbonyl)octahydro-1H-pyrrolo[1,2-a]azepin-6-yl)carbamoyl)benzo [b]thiophen-5-yl)methyl) phosphonic acid] gave an IC50 [1] of 0.1 to 1 µM and an IC50 [2] of 3 to 30 µM.
`O=C(N[C@H]1CCC[C@H]2CC[C@@H](C(=O)N3CC(c4ccncc4F)C3)N2C1=O)c1cc2cc(C(F)P(=O)(O)O)ccc2s1` (stereo partly drawn) [Compound 610, (fluoro(2-(((3S,6S,9aS)-3-(3-(3-fluoropyridin-4-yl)azetidine-1-carbonyl)-5-oxooctahydro-1H-pyrrolo[1,2-a]azepin-6-yl)carbamoyl)benzo [b]thiophen-5-yl)methyl) phosphonic acid] showed an IC50 [1] of 0.1 to 1 µM and an IC50 [2] of 3 to 30 µM.
In the case of `O=C(N[C@H]1CCC[C@H]2CC[C@@H](C(=O)N3CC(c4ccncc4)C3)N2C1=O)c1cc2cc(C(F)P(=O)(O)O)ccc2s1` (stereo partly drawn) [Compound 611, (fluoro(2-(((3S,6S,9aS)-5-oxo-3-(3-(pyridin-4-yl)azetidine-1-carbonyl)octahydro-1H-pyrrolo[1,2-a]azepin-6-yl)carbamoyl)benzo [b]thiophen-5-yl)methyl) phosphonic acid], the IC50 [1] is reported as 0.1 to 1 µM and the IC50 [2] is reported as 3 to 30 µM.
`CC(C)Oc1ccncc1C1CN(C(=O)[C@@H]2CC[C@@H]3CCC[C@H](NC(=O)c4cc5cc(C(F)P(=O)(O)O)ccc5s4)C(=O)N32)C1` (stereo partly drawn) [Compound 612, (fluoro(2-(((3S,6S,9aS)-3-(3-(4-isopropoxypyridin-3-yl)azetidine-1-carbonyl)-5-oxooctahydro-1H-pyrrolo[1,2-a]azepin-6-yl)carbamoyl)benzo [b]thiophen-5-yl)methyl) phosphonic acid] gave an IC50 [1] of less than 0.1 µM and an IC50 [2] of 3 to 30 µM.
For `O=C(N[C@H]1CCC[C@H]2CC[C@@H](C(=O)N3CC(n4cccn4)C3)N2C1=O)c1cc2cc(C(F)P(=O)(O)O)ccc2s1` (stereo partly drawn) [Compound 613, ((2-(((3S,6S,9aS)-3-(3-(1H-pyrazol-1-yl)azetidine-1-carbonyl)-5-oxooctahydro-1H-pyrrolo[1,2-a]azepin-6-yl)carbamoyl)benzo [b]thiophen-5-yl)fluoromethyl) phosphonic acid], the IC50 [1] was 0.1 to 1 µM and the IC50 [2] was 3 to 30 µM.
Work on `O=C(N[C@H]1CCC[C@H]2CC[C@@H](C(=O)N3CC(n4cc(F)cn4)C3)N2C1=O)c1cc2cc(C(F)P(=O)(O)O)ccc2s1` (stereo partly drawn) [Compound 614, (fluoro(2-(((3S,6S,9aS)-3-(3-(4-fluoro-1H-pyrazol-1-yl)azetidine-1-carbonyl)-5-oxooctahydro-1H-pyrrolo[1,2-a]azepin-6-yl)carbamoyl)benzo [b]thiophen-5-yl)methyl) phosphonic acid] yielded an IC50 [1] of 0.1 to 1 µM and an IC50 [2] of 3 to 30 µM.
Work on `COCCOC1(c2ccccn2)CN(C(=O)[C@@H]2CC[C@@H]3CCCC[C@H](NC(=O)c4cc5cc(C(F)P(=O)(O)O)ccc5s4)C(=O)N32)C1` (stereo partly drawn) [Compound 615, (fluoro(2-(((3S,6S,10aS)-3-(3-(2-methoxyethoxy)-3-(pyridin-2-yl)azetidine-1-carbonyl)-5-oxodecahydropyrrolo[1,2-a]azocin-6-yl)carbamoyl)benzo [b]thiophen-5-yl)methyl) phosphonic acid] yielded an IC50 [1] of less than 0.1 µM and an IC50 [2] of 3 to 30 µM.
In the case of `O=C(N[C@H]1CCCC[C@H]2CC[C@@H](C(=O)N3CC(OCC(F)F)(c4cccnc4)C3)N2C1=O)c1cc2cc(C(F)P(=O)(O)O)ccc2s1` (stereo partly drawn) [Compound 616, ((2-(((3S,6S,10aS)-3-(3-(2,2-difluoroethoxy)-3-(pyridin-3-yl)azetidine-1-carbonyl)-5-oxodecahydropyrrolo [1,2-a]azocin-6-yl)carbamoyl)benzo [b]thiophen-5-yl)fluoromethyl) phosphonic acid], the IC50 [1] is reported as less than 0.1 µM and the IC50 [2] is reported as 3 to 30 µM.
